The values that follow come from patent publication US20230278972A1, “SUBSTITUTED HALOALKYL SULFONANILIDE HERBICIDES” (FMC Corporation, priority 2020, published 2023).

Where two headings read alike, the source gives them in different places.

Common to all, as to type: in vivo
The subject of one assay is corn (Zea mays). The experiment in a line: Test A postemergence, corn. The note with it: Zea mays, post-emergence, 240 h, Postemergence, 0 to 100 scale (0 no effect, 100 complete control); for Corn plant response rating (crop injury, 0 = no effect, 100 = complete kill) at 125 g/ha: 125 g ai/ha; for Corn plant response rating (crop injury, 0 = no effect, 100 = complete kill) at 500 g/ha / plant injury at 500 g/ha: 500 g ai/ha; for Corn plant response rating (crop injury, 0 = no effect, 100 = complete kill) at 500 g/ha: visual injury, approx. 10 days; for plant injury at 500 g/ha: visual injury vs untreated controls after approx. 10 days, read-out: Corn plant response rating. The essentials:
(§1)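 Directed soil spray at planting gave the preemergence treatment, while foliar application to one- to two-leaf seedlings (2–10 cm) gave the postemergence one; pots held a loam and sand mixture and chemicals were carried in a non-phytotoxic solvent with surfactant.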

Assay [1] concerns Foxtail, Giant (giant foxtail, Setaria faberi). Put plainly: Test A preemergence, Foxtail, Giant. The note with it: Setaria faberi, pre-emergence, 240 h, Preemergence; for pest or weed control at 125 g/ha: 125 g ai/ha; for pest or weed control at 500 g/ha: 500 g ai/ha. Summed up:
as §1

In assay [2] the test system is Ryegrass, Italian (Italian ryegrass, Lolium multiflorum). The experiment in a line: Test A postemergence, Ryegrass, Italian. The note with it: Lolium multiflorum, post-emergence, 240 h, Postemergence, 0 to 100 scale (0 no effect, 100 complete control); for pest or weed control at 125 g/ha: 125 g ai/ha; for pest or weed control at 500 g/ha: 500 g ai/ha. Summed up: as §1

Assay [3] has as its system ragweed (common ragweed, Ambrosia artemisiifolia). The experiment in a line: Test A preemergence, ragweed. The note with it: Ambrosia artemisiifolia, pre-emergence, 240 h, Preemergence; for pest or weed control at 125 g/ha: 125 g ai/ha; for pest or weed control at 500 g/ha: 500 g ai/ha. Summed up:
as §1

Setting [4] is: visual injury on 0 to 100 scale (0 no effect, 100 complete control), approximately 10 days, read-out: Foxtail, Giant plant response rating.
Setting [5] is: 0 to 100 scale (0 no effect, 100 complete control), read-out: Plant response rating, Foxtail, Giant.
Setting [6] is: visual injury approx. 10 days, read-out: Plant response rating, Ryegrass, Italian.
[7] abbreviates: visual injury, approx. 10 days, read-out: Plant response rating, Ryegrass, Italian.
The mark [8] stands for this setting: visual injury on 0 to 100 scale (0 no effect, 100 complete control), approximately 10 days, read-out: Ragweed plant response rating.
[9] abbreviates: 0 to 100 scale (0 no effect, 100 complete control), read-out: Plant response rating, Ragweed.
[10] abbreviates: visual injury vs untreated controls after approx. 10 days, read-out: Ryegrass, Italian plant response rating.
Where [11] appears, read: read-out: Plant response rating, Ryegrass, Italian.

Turning to `Cc1cc(Cl)c(NS(=O)(=O)C(F)(F)F)cc1C(=O)N1CCOCC1` [Compound 16, N-[2-Chloro-4-methyl-5-(4-morpholinylcarbonyl)phenyl]-1,1,1-trifluoromethanesulfonamide], the Corn plant response rating (crop injury, 0 = no effect, 100 = complete kill) at 125 g/ha with corn (Zea mays) (visual injury approx. 10 days) was 0%. The Corn plant response rating (crop injury, 0 = no effect, 100 = complete kill) at 500 g/ha with corn (Zea mays) was found to be 50%. Besides, the values for the pest or weed control at 125 g/ha in assay [1] (setting [4]), in assay [2] (setting [6]) and in assay [3] (setting [8]) were 30%, 50% and 80%, respectively. Further, the pest or weed control at 500 g/ha came out at 100% in assay [1] (setting [5]), 70% in assay [2] (setting [7]) and 100% in assay [3] (setting [9]).
For the compound `Cc1cc(Cl)c(NS(=O)(=O)C(F)(F)F)cc1C(=O)N1CCCCC1` [Compound 18, N-[2-Chloro-4-methyl-5-(1-piperidinylcarbonyl)phenyl]-1,1,1-trifluoromethanesulfonamide], the Corn plant response rating (crop injury, 0 = no effect, 100 = complete kill) at 125 g/ha in the assay with corn (Zea mays) (visual injury approx. 10 days) amounted to 0%. The compound also returned a Corn plant response rating (crop injury, 0 = no effect, 100 = complete kill) at 500 g/ha with corn (Zea mays) of 0%. Besides, the figures for the pest or weed control at 125 g/ha in assay [1] (setting [4]), in assay [2] (setting [6]) and in assay [3] (setting [8]) were 100%, 10% and 0%, respectively. Moreover, the pest or weed control at 500 g/ha amounted to 100% in assay [1] (setting [5]), 40% in assay [2] (setting [7]) and 30% in assay [3] (setting [9]).
On to `CCc1cc(-c2cc(NS(=O)(=O)C(F)(F)F)c(C)cc2C)c(=O)n(C)n1` [Compound 34, N-[5-(6-Ethyl-2,3-dihydro-2-methyl-3-oxo-4-pyridazinyl)-2,4-dimethylphenyl]-1,1,1-trifluoromethanesulfonamide], for which the Corn plant response rating (crop injury, 0 = no effect, 100 = complete kill) at 125 g/ha in the assay on corn (Zea mays) (visual injury approx. 10 days) worked out at 0%. In the assay on corn (Zea mays), this compound had a Corn plant response rating (crop injury, 0 = no effect, 100 = complete kill) at 500 g/ha of 0%. Also, the pest or weed control at 125 g/ha in assay [1] (setting [4]), in assay [2] (setting [6]) and in assay [3] (setting [8]) was 0% each time. Moreover, the pest or weed control at 500 g/ha is 30% in assay [1] (setting [5]), 0% in assay [2] (setting [7]) and 20% in assay [3] (setting [9]).
Turning to `Cc1cc(C)c(N(COC(=O)C(C)(C)C)S(=O)(=O)C(F)(F)F)cc1C1=NO[C@@H]2CCC[C@H]12` [Compound 100, [[2,4-Dimethyl-5-[(3aR,6aR)-3a,5,6,6a-tetrahydro-4H-cyclopent[d]isoxazol-3-yl]phenyl][(trifluoromethyl)sulfonyl]amino]methyl 2,2-dimethylpropanoate], the Corn plant response rating (crop injury, 0 = no effect, 100 = complete kill) at 125 g/ha in the assay on corn (Zea mays) (visual injury approx. 10 days) worked out at 10%. Besides, the plant injury at 500 g/ha with corn (Zea mays) is 30%. Further, the pest or weed control at 125 g/ha worked out at 40% in assay [1] (setting [4]), 20% in assay [2] (setting [6]) and 20% in assay [3] (setting [8]). Further, the figures for the pest or weed control at 500 g/ha in assay [1] (setting [5]), in assay [2] (setting [10]) and in assay [3] (setting [9]) were 90%, 40% and 80%, respectively.
As to `Cc1cc(C)c(C2=NO[C@@H]3CCC[C@H]23)cc1NS(=O)(=O)C(F)(F)F` [Compound 103, N-[2,4-Dimethyl-5-[(3aR,6aR)-3a,5,6,6a-tetrahydro-4H-cyclopent[d]isoxazol-3-yl]phenyl]-1,1,1-trifluoromethanesulfonamide], the Corn plant response rating (crop injury, 0 = no effect, 100 = complete kill) at 125 g/ha in the assay with corn (Zea mays) (visual injury approx. 10 days) stood at 20%. For the same compound, the plant injury at 500 g/ha in the assay on corn (Zea mays) is 70%. Moreover, the pest or weed control at 125 g/ha stood at 90% in assay [1] (setting [4]), 90% in assay [2] (setting [6]) and 70% in assay [3] (setting [8]). Also, the pest or weed control at 500 g/ha in assay [1] (setting [5]) stood at 100%; in assay [2] (setting [10]), 90%; in assay [3] (setting [9]) it was 90%.
The compound `Cc1cc(C)c(C2=NOC3CCOCC23)cc1NS(=O)(=O)C(F)(F)F` (stereo not shown) [Compound 120, N-[2,4-Dimethyl-5-(3a,6,7,7a-tetrahydro-4H-pyrano[3,4-d]isoxazol-3-yl)phenyl]-1,1,1-trifluoromethanesulfonamide] showed a Corn plant response rating (crop injury, 0 = no effect, 100 = complete kill) at 125 g/ha with corn (Zea mays) (visual injury approx. 10 days) of 0%. Besides, in the assay with corn (Zea mays), the plant injury at 500 g/ha came out at 70%. In addition, the figures for the pest or weed control at 125 g/ha in assay [1] (setting [4]), in assay [2] (setting [6]) and in assay [3] (setting [8]) were 100%, 90% and 90%, respectively. Also, the figures for the pest or weed control at 500 g/ha in assay [1] (setting [5]), in assay [2] (setting [10]) and in assay [3] (setting [9]) were 100%, 80% and 100%, respectively.
Take `Cc1cc(C)c(C2=NOC3COCCC23)cc1NS(=O)(=O)C(F)(F)F` (stereo not shown) [Compound 121, N-[2,4-Dimethyl-5-(3a,4,7,7a-tetrahydro-5H-pyrano[4,3-d]isoxazol-3-yl)phenyl]-1,1,1-trifluoromethanesulfonamide]: the Corn plant response rating (crop injury, 0 = no effect, 100 = complete kill) at 125 g/ha in the assay on corn (Zea mays) (visual injury approx. 10 days) turned out to be 50%. In the assay with corn (Zea mays), the plant injury at 500 g/ha was found to be 80%. Further, the pest or weed control at 125 g/ha in assay [1] (setting [4]) is 100%; in assay [2] (setting [6]), 90%; in assay [3] (setting [8]) it was 80%. In addition, the pest or weed control at 500 g/ha in assay [1] (setting [5]) came to 100%; in assay [2] (setting [10]) it was 80%; in assay [3] (setting [9]), 100%.
In turn, `Cc1c(NS(=O)(=O)C(F)(F)F)cc(C(=O)N(C)C)c(C)c1F` [Compound 128, 3-Fluoro-N,N,2,4-tetramethyl-5-[[(trifluoromethyl)sulfonyl]amino]benzamide] gave a Corn plant response rating (crop injury, 0 = no effect, 100 = complete kill) at 125 g/ha in the assay on corn (Zea mays) (visual injury approx. 10 days) of 10%. Besides, the plant injury at 500 g/ha with corn (Zea mays) came to 60%. The pest or weed control at 125 g/ha in assay [1] (setting [4]) amounted to 50%; in assay [2] (setting [6]) it was 80%; in assay [3] (setting [8]), 90%. Besides, the pest or weed control at 500 g/ha in assay [1] (setting [5]) amounted to 100%; in assay [2] (setting [10]), 100%; in assay [3] (setting [9]), 90%.
As to `Cc1cc(C)c(N(COC(=O)C(C)(C)C)S(=O)(=O)C(F)(F)F)cc1C1=NOC2(CCCC2)C1` [Compound 140, [[2,4-Dimethyl-5-(1-oxa-2-azaspiro[4.4]non-2-en-3-yl)phenyl][(trifluoromethyl)sulfonyl]amino]methyl 2,2-dimethylpropanoate], the Corn plant response rating (crop injury, 0 = no effect, 100 = complete kill) at 125 g/ha in the assay with corn (Zea mays) (visual injury approx. 10 days) came out at 0%. Besides, in the assay on corn (Zea mays), the plant injury at 500 g/ha came to 30%. Also, the pest or weed control at 125 g/ha in assay [1] (setting [4]) came out at 20%; in assay [2] (setting [11]), 0%; in assay [3] (setting [8]) it was 30%. The pest or weed control at 500 g/ha turned out to be 90% in assay [1] (setting [5]), 20% in assay [2] (setting [10]) and 60% in assay [3] (setting [9]).
For `Cc1cc(C)c(N(COC(=O)C(C)(C)C)S(=O)(=O)C(F)(F)F)cc1C1=NOC2(CCCCC2)C1` [Compound 159, [[2,4-Dimethyl-5-(1-oxa-2-azaspiro[4.5]dec-2-en-3-yl)phenyl][(trifluoromethyl)sulfonyl]amino]methyl 2,2-dimethylpropanoate], the Corn plant response rating (crop injury, 0 = no effect, 100 = complete kill) at 125 g/ha in the assay on corn (Zea mays) came out at 0%. In addition, in the assay with corn (Zea mays), the plant injury at 500 g/ha was 30%. Further, the figures for the pest or weed control at 125 g/ha in assay [1] (setting [4]), in assay [2] (setting [11]) and in assay [3] (setting [8]) were 30%, 0% and 80%, respectively. In addition, the pest or weed control at 500 g/ha in assay [1] (setting [5]) came to 70%; in assay [2] (setting [10]), 0%; in assay [3] (setting [9]) it was 80%.
With `Cc1c(NS(=O)(=O)C(F)(F)F)cc(C(=O)N2CCOCC2)c(C)c1F` [Compound 190, 1,1,1-Trifluoro-N-[3-fluoro-2,4-dimethyl-5-(4-morpholinylcarbonyl)phenyl]methanesulfonamide], the Corn plant response rating (crop injury, 0 = no effect, 100 = complete kill) at 125 g/ha in the assay on corn (Zea mays) came to 0%. Further, in the assay on corn (Zea mays), the plant injury at 500 g/ha is 30%. Also, the pest or weed control at 125 g/ha in assay [1] (visual injury, 0 to 100 scale (0 no effect, 100 complete control), approx. 10 days, read-out: Plant response rating, Foxtail, Giant) turned out to be 90%; in assay [2] (setting [11]) it was 80%; in assay [3] (visual injury, 0 to 100 scale (0 no effect, 100 complete control), approx. 10 days, read-out: Plant response rating, Ragweed), 70%. Besides, the results for the pest or weed control at 500 g/ha in assay [1] (setting [5]), in assay [2] (setting [10]) and in assay [3] (setting [9]) were 100%, 90% and 90%, respectively.
